Several values for one entry are separate records, joined by “and”; a condition that tells them apart may be missing. Equal values may be shown once. Read-outs that look alike come from different tables or passages of the source. Where no end group is shown, it is not given here.
Key:
Format in all cases: cell-based
NMU2 E127A [1] = biological target: T1, NMU2 E127A (Homo sapiens, UniProt Q9GZQ4, E127A); test: TRUPATH assay, NMU2 mutant E127A
T1 construct: HA signal peptide (N); expressed in transfected cells; host or cells: HEK 293F
Procedure: The plasmids of Gαi1, Gβ3, and Gγ9 used for the TRUPATH assay were purchased from Addgene (TRUPATH Kit, #1000000163). NMU2 constructs of WT and mutants were constructed into a PTT5 vector (Invitrogen) with an N-terminal HA signal peptide followed by a Flag tag. HEK 293F cells were transiently transfected with WT or mutants of NMU2, Gαi1, Gβ3, and Gγ9 at an […] ratio of 4:1:1:1 with a total of 3500 ng plasmid DNA using a transfection reagent (PEI MAX 2000, Polysciences) and cultivated at 37 °C with 5 % CO2. Cells were collected after 48-h transfection. The expression level of the receptor was measured by incubating 10 μl cells with 15 μl TBS buffer supplemented with 4% bovine serum albumin, 20% (v/v) viability staining solution7-AAD (Invitrogen, Cat#00-6993-50), and ANTI-FLAG M2-FITC antibody (Sigma, F4049; 1:100 diluted by TBS) at 4 °C for 20 min. After incubation, 175 μl TBS buffer was added, and the fluorescence signal on the cell surface was detected by an FCM (flow cytometry) reader (Millipore). […] After a 5 min equilibration time in the darkness, plates were then read in a Synerg^TM H1 microplate reader (BioTek) with excitation at 395 nm and emission at 410 and 515 nm by serially three times. Then, 30 μl of 3.3× agonists were added into the wells with a gradient final concentration from 10^−4–10^−13 M. Plates were read immediately again by serially five times. […]

NMU2 E105A = biological target: T2, NMU2 E105A (Homo sapiens, UniProt Q9GZQ4, E105A); test: TRUPATH assay, NMU2 mutant E105A
T2 construct: HA signal peptide (N); expressed in transfected cells; host or cells: HEK 293F
Procedure: (§1) The plasmids of Gαi1, Gβ3, and Gγ9 used for the TRUPATH assay were purchased from Addgene (TRUPATH Kit, #1000000163). NMU2 constructs of WT and mutants were constructed into a PTT5 vector (Invitrogen) with an N-terminal HA signal peptide followed by a Flag tag. HEK 293F cells were transiently transfected with WT or mutants of NMU2, Gαi1, Gβ3, and Gγ9 at an […] ratio of 4:1:1:1 with a total of 3500 ng plasmid DNA using a transfection reagent (PEI MAX 2000, Polysciences) and cultivated at 37 °C with 5 % CO2. Cells were collected after 48-h transfection. The expression level of the receptor was measured by incubating 10 μl cells with 15 μl TBS buffer supplemented with 4% bovine serum albumin, 20% (v/v) viability staining solution7-AAD (Invitrogen, Cat#00-6993-50), and ANTI-FLAG M2-FITC antibody (Sigma, F4049; 1:100 diluted by TBS) at 4 °C for 20 min. After incubation, 175 μl TBS buffer was added, and the fluorescence signal on the cell surface was detected by an FCM (flow cytometry) reader (Millipore). The cells were diluted with 1× HBSS (Hank’s balanced salt solution) balanced buffer supplemented with 25 mM HEPES, pH 7.4, and seeded onto the 96-well opaque cell culture plates (Beyotime) at a density of 18,000 cells per well by 60 μl. Freshly prepared 50 μM coelenterazine 400a (Nanolight Technologies) was added into the well by 10 μl. After a 5 min equilibration time in the darkness, plates were then read in a Synerg^TM H1 microplate reader (BioTek) with excitation at 395 nm and emission at 410 and 515 nm by serially three times. Then, 30 μl of 3.3× agonists were added into the wells with a gradient final concentration from 10^−4–10^−13 M. Plates were read immediately again by serially five times. Data were processed and analyzed following the method in the literature by using GraphPad Prism 8.0.

NMU2 N109A = biological target: T3, NMU2 N109A (Homo sapiens, UniProt Q9GZQ4, N109A); test: TRUPATH assay, NMU2 mutant N109A
T3 construct: HA signal peptide (N); expressed in transfected cells; host or cells: HEK 293F
Procedure: as §1

NMU2 F291A = biological target: T4, NMU2 F291A (Homo sapiens, UniProt Q9GZQ4, F291A); test: TRUPATH assay, NMU2 mutant F291A
T4 construct: HA signal peptide (N); expressed in transfected cells; host or cells: HEK 293F
Procedure: as §1

NMU2 E127A [2] = biological target: T1, NMU2 E127A; test: IP accumulation assay, NMU2 mutant E127A; details: IP accumulation
Procedure: (§2) NMU2 constructs of WT and mutants were constructed into PTT5 vector (Invitrogen), as mentioned above. HEK 293F cells were transiently transfected with WT or mutants with total of 2000 ng plasmid DNA using transfection reagent (PEI MAX 2000, Polysciences) and cultivated at 37 °C with 5% CO2. Cells were collected after 48-h transfection. IP accumulation was tested by IP-One Gq assay kit (Cisbio Bioassays, 62IPAPEJ) following the instruction manual. In general, cells were resuspended with 1× HBSS buffer containing 20 mM LiCl (stimulation buffer) and seeded into the white 384-well microplates (Proxi Plate^TM-384 Plus, PerkinElmer) with a density of 20,000 per well. Cells were preincubated with 10^−5 M R-PSOP (provided by Boehringer Ingelheim company, Germany) and gradient concentration from 10^−4 to 10^−11 M of NMU-25 or gradient concentration 10^−4 to 10^−11 M of NMU-25 alone in stimulation buffer at 37 °C for 90 min. The cryptate-labeled anti-IP1 monoclonal antibody and d2-labeled IP1 were diluted with lysis & detection buffer (1:20) and added to each well by 3 μl, respectively. The plates were incubated at room temperature for 60 minutes and then read in a Synerg^TM H1 microplate reader (BioTek) with excitation at 330 nm and emission at 620 and 665 nm. The IP1 production was calculated by a standard dose–response curve and analyzed by GraphPad Prism 8.0.

NMU2 A302H = biological target: T5, NMU2 A302H (Homo sapiens, UniProt Q9GZQ4, A302H); test: TRUPATH assay, NMU2 mutant A302H
T5 construct: HA signal peptide (N); expressed in transfected cells; host or cells: HEK 293F
Procedure: as §1

NMU2 F177C = biological target: T6, NMU2 F177C (Homo sapiens, UniProt Q9GZQ4, F177C); test: IP accumulation assay, NMU2 mutant F177C; details: IP accumulation
T6 construct: HA signal peptide (N); expressed in transfected cells; host or cells: HEK 293F, transient transfection, PTT5 vector
Procedure: as §2

NMU2 H43E = biological target: T7, NMU2 H43E (Homo sapiens, UniProt Q9GZQ4, H43E); test: TRUPATH assay, NMU2 mutant H43E; details: H43E
T7 construct: HA signal peptide (N); expressed in transfected cells; host or cells: HEK 293F
Procedure: as §1

NMU2 F284A = biological target: T8, NMU2 F284A (Homo sapiens, UniProt Q9GZQ4, F284A); test: TRUPATH assay, NMU2 mutant F284A
T8 construct: HA signal peptide (N); expressed in transfected cells; host or cells: HEK 293F
Procedure: as §1

[3] = read-out: pEC50 mean±SEM (converted)
[4] = read-out: pEC50±SEM, NmU-25 alone (converted)

T1 sequence (Q9GZQ4 whole entry E127A): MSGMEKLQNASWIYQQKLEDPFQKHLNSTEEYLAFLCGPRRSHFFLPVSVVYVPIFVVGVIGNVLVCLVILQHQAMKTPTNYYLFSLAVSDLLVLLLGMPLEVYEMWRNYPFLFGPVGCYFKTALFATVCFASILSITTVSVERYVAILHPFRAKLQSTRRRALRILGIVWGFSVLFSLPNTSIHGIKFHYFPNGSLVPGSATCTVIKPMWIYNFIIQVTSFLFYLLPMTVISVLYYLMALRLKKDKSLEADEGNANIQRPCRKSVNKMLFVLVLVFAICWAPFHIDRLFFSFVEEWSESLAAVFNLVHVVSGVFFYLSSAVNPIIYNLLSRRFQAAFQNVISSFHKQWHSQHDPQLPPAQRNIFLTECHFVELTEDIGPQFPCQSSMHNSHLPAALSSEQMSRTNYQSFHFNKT
T4 sequence (Q9GZQ4 whole entry F291A): as the sequence (Q9GZQ4 whole entry E127A) above, with A127E, F291A counted along it
T8 sequence (Q9GZQ4 whole entry F284A): as the sequence (Q9GZQ4 whole entry E127A) above, with A127E, F284A counted along it
T5 sequence (Q9GZQ4 whole entry A302H): as the sequence (Q9GZQ4 whole entry E127A) above, with A127E, A302H counted along it
T3 sequence (Q9GZQ4 whole entry N109A): as the sequence (Q9GZQ4 whole entry E127A) above, with N109A, A127E counted along it
T2 sequence (Q9GZQ4 whole entry E105A): as the sequence (Q9GZQ4 whole entry E127A) above, with E105A, A127E counted along it
T7 sequence (Q9GZQ4 whole entry H43E): as the sequence (Q9GZQ4 whole entry E127A) above, with H43E, A127E counted along it
T6 sequence (Q9GZQ4 whole entry F177C): as the sequence (Q9GZQ4 whole entry E127A) above, with A127E, F177C counted along it

Substance: FRVDEEFQSPFASQSRGYFLFRPRN-NH2 [NmU-25]
- G protein activation (TRUPATH), dose-response point (NMU2 E127A [1]; Log [agonist] M -4): 45.81 and 24.8732
- potency (in words) (NMU2 E127A [1]; TRUPATH): complete loss of potency
- Span (window between Emax and minimal agonist response) (NMU2 E105A; E105A): 65±13 % of WT
- Emax (NMU2 E105A; E105A vs WT, TRUPATH, read-out: decrease of Emax): 50%
- G protein activation (TRUPATH), dose-response point (NMU2 E105A; E105A, Log [agonist] M -5): 55.6494 and 84.0025 and 53.5618 and 51.5031
- EC50 (NMU2 E105A; E105A, earlier manuscript version quoted in peer review file, read-out: EC50): 1850 nM
- reduction of agonist potency (NMU2 E105A; E105A, earlier manuscript version, peer review file): about 50 fold
- ΔpEC50 (from WT) (NMU2 E105A; E105A, individual experiments): -1.22 and -1.57 and -1.279 and -1.924
- EC50 (NMU2 E105A; E105A, read-out: EC50): 2480 nM
- EC50 (NMU2 E105A; E105A, read-out: pEC50 mean±SEM (converted)): 2510 nM
- EC50 ratio EC50(mutant)/EC50(WT) (NMU2 N109A): 9
- Span (window between Emax and minimal agonist response) (NMU2 N109A): 138±11 % of WT
- G protein activation (TRUPATH), dose-response point (NMU2 N109A; Log [agonist] M -4): 126.259
- G protein activation (TRUPATH), dose-response point (NMU2 N109A; Log [agonist] M -5): 106.487 and 123.773 and 113.723
- G protein activation (TRUPATH), dose-response point (NMU2 N109A; Log [agonist] M -6): 98.1363 and 71.1117 and 54.8765
- ΔpEC50 (from WT) (NMU2 N109A; individual experiments): -1.459 and -0.6318 and -0.9885
- EC50 (NMU2 N109A; read-out: EC50): 298 nM
- EC50 (NMU2 N109A; [3]): 295 nM
- EC50 ratio EC50(mutant)/EC50(WT) (NMU2 F291A): 22
- Span (window between Emax and minimal agonist response) (NMU2 F291A): 126±11 % of WT
- G protein activation (TRUPATH), dose-response point (NMU2 F291A; Log [agonist] M -4): 101.173 and 139.066
- G protein activation (TRUPATH), dose-response point (NMU2 F291A; Log [agonist] M -5): 80.701 and 107.283 and 106.417
- span (NMU2 F291A; compared with wild-type, peer review file): 127%
- ΔpEC50 (from WT) (NMU2 F291A; individual experiments): -0.7238 and -1.311 and -0.9879
- EC50 (NMU2 F291A; read-out: EC50): 737 nM
- EC50 (NMU2 F291A; [3]): 741 nM
- EC50 (NMU2 E127A [2]; read-out: EC50, NmU-25 alone): 2140 nM
- EC50 (NMU2 E127A [2]; [4]): 2140 nM
- EC50 ratio EC50(mutant)/EC50(WT) (NMU2 A302H): 5
- Span (window between Emax and minimal agonist response) (NMU2 A302H): 97±11 % of WT
- G protein activation (TRUPATH), dose-response point (NMU2 A302H; Log [agonist] M -4): 97.2233 and 94.5294
- G protein activation (TRUPATH), dose-response point (NMU2 A302H; Log [agonist] M -6): 58.8982 and 69.5076 and 54.0633
- ΔpEC50 (from WT) (NMU2 A302H; individual experiments): -0.7587 and -0.754 and -0.956
- EC50 (NMU2 A302H; read-out: EC50): 162 nM
- EC50 (NMU2 A302H; [3]): 162 nM
- EC50 (NMU2 F177C; read-out: EC50, NmU-25 alone): 7 nM
- EC50 (NMU2 F177C; [4]): 7.08 nM
- EC50 ratio EC50(mutant)/EC50(WT) (NMU2 H43E): 11
- Span (window between Emax and minimal agonist response) (NMU2 H43E): 135±8 % of WT
- G protein activation (TRUPATH), dose-response point (NMU2 H43E; Log [agonist] M -4): 115.78 and 106.024 and 146.553 and 103.896
- G protein activation (TRUPATH), dose-response point (NMU2 H43E; Log [agonist] M -6): 81.3432 and 53.8154 and 89.1078 and 81.5652
- ΔpEC50 (from WT) (NMU2 H43E; individual experiments): -0.8963 and -0.6313 and -0.3476 and -0.5879
- EC50 (NMU2 H43E; read-out: EC50): 360 nM
- EC50 (NMU2 H43E; [3]): 363 nM
- NmU-25–induced G protein activation of NMU2 (NMU2 F284A; Log [NmU-25] M -4, single replicates): 51.7867 and 36.0609 and 47.0977
- NmU-25–induced G protein activation of NMU2 (NMU2 F284A; Log [NmU-25] M -5, single replicates): 36.8137 and 51.0666 and -1.433 and 5.137 and 15.0834
- NmU-25–induced G protein activation of NMU2 (NMU2 F284A; Log [NmU-25] M -6, single replicates): -9.689 and 18.4963 and 20.7431 and 10.1867 and 6.446
- NmU-25–induced G protein activation of NMU2 (NMU2 F284A; Log [NmU-25] M -7, single replicates): 16.596 and 4.555 and 25.4325 and 3.668 and -4.14
- NmU-25–induced G protein activation of NMU2 (NMU2 F284A; Log [NmU-25] M -8, single replicates): 37.8124 and 33.3355 and -35.58 and 1.433 and 3.8556
- NmU-25–induced G protein activation of NMU2 (NMU2 F284A; Log [NmU-25] M -9, single replicates): 18.5281 and 39.1515 and -3.291 and -33.2453 and 1.059
- NmU-25–induced G protein activation of NMU2 (NMU2 F284A; Log [NmU-25] M -10, single replicates): -33.6452 and 11.984 and -41.6359 and -19.8948 and -2.9799
- NmU-25–induced G protein activation of NMU2 (NMU2 F284A; Log [NmU-25] M -11, single replicates): -12.488 and 31.0606 and -18.1089 and -17.8891 and -12.403
- G protein activation (TRUPATH), dose-response point (NMU2 F284A; Log [agonist] M -4): 51.7867 and 36.0609 and 47.0977

Source: PMC9794833, “Ligand recognition and activation of neuromedin U receptor 2” (Nature Communications, 2022)
